Holding throughout (assay): NCI tumour cell line growth inhibition, 48 h
Experiment [1] relates to MOLT-4 leukemia.
The subject of experiment [2] is LOX IMVI melanoma.
The test system of experiment [3] is SF-539 CNS.
In experiment [4] the test system is UACC-62 melanoma.
Experiment [5] deals with SK-MEL-2 melanoma.
Experiment [6] deals with HOP-62 NSCLC.
The test system of experiment [7] is OVCAR-3 ovarian.
Experiment [8] has as its system KM12 colon.
Experiment [9] deals with MALME-3M melanoma.
Experiment [10] relates to SF-295 CNS.
For experiment [11], the system named is HCT-15 colon.
In experiment [12] the test system is SNB-75 CNS.
Experiment [13] relates to DU-145 prostate.
The test system of experiment [14] is HS 578T breast.

Structures are written as SMILES.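 Cells were grown in 96-well plates and exposed to each compound for 48 hours at five concentrations; endpoints were interpolated linearly between bracketing concentrations, or set to the highest concentration if not reached. GI50 = concentration required for 50% inhibition of growth. At the TGI there is no net growth.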 Residues, ends and D or L forms follow the SMILES beside them. *: point of attachment. Boc = CC(C)(C)OC(=O)*; OBn = c1ccc(CO*)cc1 Where only a bound is given, the exact number is not on record here.

Regarding `NCCCCC(=O)c1cccnc1`, the TGI in [1], in experiment [2], in experiment [3], in [4], in experiment [5] and in experiment [6] was > 100 µM throughout. For the same compound, the TGI in [7], in experiment [8], in [9], in experiment [10] and in [11] was > 100 µM in each case.

For the compound `COC(=O)C1=CN(C2CCCCC2)C2(c3ccccc3)c3ccccc3C(=O)OC(=O)C12` (centres undefined), the TGI in experiment [1], in experiment [2], in [12], in [3], in experiment [5] and in experiment [13] was > 100 µM in each case. In addition, the TGI in [6], in [7], in [8], in experiment [9], in experiment [10] and in experiment [11] was > 100 µM each time.

On to `COC(=O)[C@]1(c2cc3ccccc3[nH]2)CC2CN(CC(=O)N(C)OC)C1CC2(OC)OC` (some centres undefined), for which the TGI in experiment [2], in experiment [12], in experiment [3], in experiment [4], in experiment [5] and in experiment [13] was > 100 µM in each case. For the same compound, the TGI in experiment [6], in [7], in [8], in experiment [9], in experiment [10] and in [11] was > 100 µM each time.

On to `COC(=O)c1ccccc1/C=C1\Cc2c(C)cc(C)cc2C1=O`, for which the TGI in [1], in [2], in [12], in experiment [3], in experiment [4] and in experiment [14] was > 100 µM in each case. In addition, the TGI in [5], in experiment [6], in [7], in experiment [8], in experiment [9] and in experiment [10] was > 100 µM throughout. For the same compound, the TGI in [11] was > 100 µM.

In the case of `CC(C)C(C/C=C1/CC(CO)(COC(=O)c2ccccc2)OC1=O)C(C)C` (centres undefined), the TGI in [1] was determined as 47 µM; in experiment [2], 69.6 µM; in experiment [12], 20.3 µM; in experiment [3], 16.1 µM; in experiment [4], 67.1 µM; in experiment [14] it was 24.3 µM. Also, the TGI in [5] was > 100 µM; in experiment [6], 22.4 µM; in [7], 32.2 µM; in [8], 31.7 µM; in [9], 25.1 µM; in experiment [10] it was 25.7 µM. The same compound had a TGI in experiment [11] of 36.9 µM.

On to `O=S(=O)(c1ccccc1)n1cc(C[P+](c2ccccc2)(c2ccccc2)c2ccccc2)c2ccccc21`, for which the TGI in [1] was 23.6 µM; in experiment [2] it was 13.6 µM; in [12], 12.6 µM; in [3] it was 16.8 µM; in experiment [4] it was 17.8 µM; in experiment [5] it was 5.87 µM. The TGI was determined as 12.6 µM in experiment [6]; 13.5 µM in experiment [7]; 13.1 µM in [8]; 14.7 µM in experiment [9]; 24.3 µM in experiment [10]; 30.5 µM in experiment [11].

Turning to `CC1(S)CC2C(CC1Sc1ccccc1)C2(C)C` (centres undefined), the TGI in [1], in [12], in experiment [3], in experiment [5], in experiment [7] and in experiment [8] was > 100 µM in each case. Further, the TGI in experiment [9], in experiment [10] and in [11] was > 100 µM in each case.

`C[C@@H]1C2=CC[C@@]3(C)C(CCC3[C@H](C)[C@H]3C[C@@]4(C)O[C@@](c5cccnc5)(O3)OC4(C)C)[C@@H]2C2OC2[C@@]12CCC(=O)O2` (some centres undefined): the TGI in experiment [2] is > 100 µM; in experiment [12], > 100 µM; in experiment [3], > 100 µM; in experiment [4] it was > 100 µM; in [5] it was 58.6 µM; in experiment [6], > 100 µM. Also, the TGI in experiment [7] is 85.9 µM; in experiment [8], > 100 µM; in [9], 92.7 µM; in [10], > 100 µM; in [11] it was > 100 µM.

Regarding `C=C1C(=O)OC2CC(=C)C3CC=C(C)C3CC12` (centres undefined), the TGI was 46.8 µM in experiment [1]; 23.5 µM in [2]; > 100 µM in [3]; 25.3 µM in [4]; > 100 µM in experiment [14]; 26.5 µM in experiment [5]. Further, the TGI in experiment [6] was > 100 µM; in experiment [7] it was 91.9 µM; in [8] it was > 100 µM; in experiment [10], > 100 µM; in [11] it was 36.7 µM.

Turning to `CC(C)CC(NC(=O)OC(C)(C)C)C(=O)N1CCCC1C(=O)OCc1ccccc1` (stereo not drawn) (Boc-Leu-Pro-OBn; configuration not given here), the TGI in experiment [2], in [12], in [3], in experiment [4], in [5] and in experiment [13] was > 100 µM each time. The TGI in experiment [7], in experiment [8], in [9], in experiment [10] and in experiment [11] was > 100 µM each time.

On to `O=[N+]([O-])C(=C1Nc2ccccc2N1)/C(Cl)=C(/Cl)N1CCOCC1`, for which the TGI in experiment [1], in experiment [12], in [3], in experiment [4], in experiment [14] and in experiment [5] was > 100 µM each time. The TGI is > 100 µM in [6]; 96.6 µM in experiment [7]; > 100 µM in [8]; > 100 µM in experiment [9]; > 100 µM in experiment [10]; > 100 µM in experiment [11].

For `COc1cc(Nc2nnc3n2S(=O)(=O)c2cc(C)c(Cl)cc2S3)cc(OC)c1`, the TGI in [1] was determined as 60.9 µM; in experiment [3], 6.31 µM; in experiment [4] it was 57.6 µM; in [14], 66.9 µM; in experiment [13] it was 44.2 µM; in experiment [6], 26.7 µM. In addition, the TGI in [7] was 28.2 µM; in experiment [8] it was > 100 µM; in experiment [9] it was 23.1 µM; in experiment [10], 68.7 µM; in experiment [11], > 100 µM.

Regarding `Cc1ccc(N=NN(C)C(=O)C(C)N)cc1` (centres undefined), the TGI in experiment [1], in experiment [2], in experiment [12], in experiment [3], in experiment [4] and in experiment [5] was > 100 µM in each case. Also, the TGI in [13], in experiment [6], in experiment [7], in [8], in [9] and in [10] was > 100 µM each time. The TGI in experiment [11] was > 100 µM.

As to `Cc1cc(=O)[nH]c(NNC(C#N)c2c(O)ccc3ccccc23)n1` (centres undefined), the TGI in [1] was 48.6 µM; in experiment [2] it was 22.4 µM; in experiment [12] it was 55.9 µM; in [3], 13.7 µM; in experiment [4], 10.1 µM; in experiment [5] it was 27.8 µM. Also, the TGI in experiment [6] was 73.8 µM; in [7], 43.1 µM; in experiment [8], 17.3 µM; in experiment [9], 26.8 µM; in experiment [10] it was > 100 µM; in [11] it was 18.8 µM.

Consider `O=C(O)CNn1c(SCC(=O)O)nnc(/C=C/c2c(O)ccc3ccccc23)c1=O`, for which the TGI in experiment [2] was 31.8 µM; in [3], > 100 µM; in [4], 74.4 µM; in [14] it was 94.4 µM; in experiment [5] it was > 100 µM; in experiment [13], > 100 µM. Moreover, the TGI in experiment [6], in experiment [7], in experiment [8], in [9], in experiment [10] and in [11] was > 100 µM each time.

Turning to `CCCCOCc1cc(CN2CCN(C)CC2)c(O)c2ncccc12`, the TGI in experiment [1] was 77.2 µM; in [2] it was > 100 µM; in [12], > 100 µM; in experiment [3], 76.7 µM; in experiment [4], 40.6 µM; in [5], > 100 µM. Moreover, the TGI was 41.8 µM in experiment [6]; > 100 µM in experiment [7]; > 100 µM in experiment [8]; > 100 µM in experiment [9]; 33.5 µM in experiment [10]; 33.7 µM in experiment [11].

On to `CC(C)(C)OC/C=C1\C(=O)O[C@H]2C[C@@H](O[Si](C)(C)C(C)(C)C)C[C@@H]12`, for which the TGI in [1], in experiment [2], in experiment [12], in experiment [5], in [13] and in [6] was > 100 µM in each case. Further, the TGI in experiment [7], in experiment [8], in experiment [9], in experiment [10] and in experiment [11] was > 100 µM in each case.

Take `N=C(N)c1ccc(-c2ccc(-c3cccs3)s2)s1`: the GI50 in [12] is 1.77 µM; in experiment [3] it was 1.58 µM; in experiment [4] it was 1.82 µM; in experiment [13] it was 1.52 µM; in experiment [8] it was 1.47 µM; in experiment [9], 1.71 µM. Besides, the TGI was determined as 3.41 µM in experiment [12]; 2.96 µM in [3]; 3.28 µM in [4]; 2.97 µM in experiment [13]; 2.92 µM in experiment [8]; 3.67 µM in experiment [9].

As to `O=[N+]([O-])/C(C(Cl)=C(Cl)Cl)=C(\Nc1ccccc1)n1nnc2ccccc21`, the TGI in experiment [1] is > 100 µM; in [2], 31.2 µM; in [12], > 100 µM; in experiment [3], > 100 µM; in experiment [4] it was > 100 µM; in experiment [14], 38.7 µM. The TGI in experiment [5] was 75.2 µM; in experiment [6] it was 93.6 µM; in [7], > 100 µM; in [8], 48 µM; in experiment [9], > 100 µM; in experiment [10] it was > 100 µM. Further, the TGI in experiment [11] was > 100 µM.

As for `Cc1ccc(C(O)(c2ccc(C)cc2)c2ccccn2)cc1`, the TGI in [2], in experiment [12], in experiment [3], in experiment [4], in experiment [5] and in [6] was > 100 µM throughout. Moreover, the TGI in experiment [7], in experiment [9], in experiment [10] and in [11] was > 100 µM each time.

`NC(=O)C(=O)C(c1ccccc1)S(=O)(=O)Cc1ccccc1` (centres undefined): the TGI in [1], in experiment [2], in [12], in experiment [3], in experiment [4] and in experiment [5] was > 100 µM throughout. The TGI in experiment [13], in experiment [6], in experiment [7], in experiment [8], in experiment [10] and in experiment [11] was > 100 µM each time.

For `O=C(N/N=C/c1ccccc1O)c1ccccc1Nc1ccccc1C(=O)N/N=C/c1ccccc1O`, the TGI in experiment [2], in [12], in experiment [3], in experiment [4], in [5] and in experiment [13] was > 100 µM each time. Besides, the TGI in experiment [6] is > 20.7 µM; in [7], > 100 µM; in [8], > 100 µM; in experiment [9], 6.09 µM; in experiment [10], > 100 µM; in [11] it was > 100 µM.

`COC(=O)c1c[nH]c2c1-c1cc(C(=O)OCc3ccccc3)n(S(=O)(=O)c3ccc(C)cc3)c1C(=O)C2=O`: the TGI in experiment [2] was found to be 0.375 µM; in experiment [12], 0.389 µM; in experiment [3], 0.471 µM; in [4], 0.363 µM; in experiment [5] it was 0.521 µM; in [13], 0.287 µM. For the same compound, the TGI in experiment [6] came out at 1.06 µM; in [7], 0.155 µM; in experiment [8], 0.89 µM; in experiment [9] it was 0.222 µM; in experiment [10] it was 0.312 µM; in experiment [11], 0.438 µM.

The values above are taken from PubChem BioAssay (NCI).
